From US9695155B2, “Herbicidal substituted pyrimidinyloxy benzene compounds” (E. I. DU PONT DE NEMOURS AND COMPANY, priority 2013, dated 2017)

Tests used:
[1] = test system: Heteranthera limosa; assay: Test B flooded paddy test; format: in vivo; conditions: Flood, 250 g ai/ha; 0 to 100 scale where 0 is no effect and 100 is complete control
Method in brief: (§1)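 Greenhouse flooded-pot test: compounds dosed into 3 cm standing water over 2-leaf plants, flood held constant. Rated visually after 13–15 days on 0–100 (complete control = 100); a dash marks no test result.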

[2] = test system: wheat; assay: Test A preemergence; format: in vivo, Triticum aestivum; conditions: for Wheat plant response rating (0 to 100 scale): 125 g ai/ha; for Wheat plant response rating: 500 g ai/ha, 0 to 100 scale where 0 is no effect and 100 is complete control
Method in brief: (§2)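 Compounds in non-phytotoxic solvent with surfactant applied as soil spray preemergence, or postemergence to plants 2-10 cm at one- to two-leaf stage, in loam/sand. After approximately 10 days in greenhouse, injury rated visually versus untreated controls, 0 (no effect) to 100 (complete control).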

[3] = test system: giant foxtail; assay: Test A preemergence; format: in vivo, Setaria faberii; conditions: for Foxtail, Giant plant response rating (0 to 100 scale): 125 g ai/ha; for Foxtail, Giant plant response rating: 500 g ai/ha, 0 to 100 scale where 0 is no effect and 100 is complete control
Method in brief: as §2

[4] = test system: velvetleaf; assay: Test A preemergence; format: in vivo, Abutilon theophrasti; conditions: for Velvetleaf plant response rating (0 to 100 scale): 125 g ai/ha; for Velvetleaf plant response rating: 500 g ai/ha, 0 to 100 scale where 0 is no effect and 100 is complete control
Method in brief: as §2

[5] = test system: barnyardgrass; assay: Test A preemergence; format: in vivo, Echinochloa crus-galli; conditions: for Barnyardgrass plant response rating (0 to 100 scale, 0 is no effect, 100 is complete control): 125 g ai/ha; for Barnyardgrass plant response rating: 500 g ai/ha, 0 to 100 scale where 0 is no effect and 100 is complete control
Method in brief: as §2

[6] = test system: rice; assay: Test B flooded paddy test; format: in vivo, Oryza sativa; conditions: Flood, 250 g ai/ha; 0 to 100 scale where 0 is no effect and 100 is complete control
Method in brief: as §1

[7] = test system: sedge, umbrella; assay: Test B flooded paddy test; format: in vivo, Cyperus difformis; conditions: Flood, 250 g ai/ha; 0 to 100 scale where 0 is no effect and 100 is complete control
Method in brief: as §1

[8] = test system: barnyardgrass; assay: Test B flooded paddy test; format: in vivo, Echinochloa crus-galli; conditions: Flood, 250 g ai/ha; 0 to 100 scale where 0 is no effect and 100 is complete control
Method in brief: as §1

[9] = test system: rice; assay: Test C flooded paddy test; format: in vivo, Oryza sativa; conditions: Flood, scale 0 to 100 (0 no effect, 100 complete control), 13 to 15 days
Method in brief: (§3)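 Pots were flooded to 3 cm above the soil surface at treatment, compound applied directly to the paddy water, and that depth held throughout. Plants were kept in a greenhouse for 13 to 15 days, then visually rated against untreated controls.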

[10] = test system: ducksalad; assay: Test C flooded paddy test; format: in vivo, Heteranthera limosa; conditions: Flood, scale 0 to 100 (0 no effect, 100 complete control), 13 to 15 days
Method in brief: as §3

[11] = test system: pigweed; assay: Test A postemergence; format: in vivo, Amaranthus retroflexus; conditions: 0 to 100 scale where 0 is no effect and 100 is complete control; for Pigweed plant response rating: 125 g ai/ha; for Plant response rating, Pigweed: 500 g ai/ha
Method in brief: as §2

[12] = test system: sedge, umbrella; assay: Test C flooded paddy test; format: in vivo, Cyperus difformis; conditions: Flood, scale 0 to 100 (0 no effect, 100 complete control), 13 to 15 days
From the text: At time of treatment, test pots were flooded to 3 cm above the soil surface, treated by application of test compounds directly to the paddy water, and then maintained at that water depth for the duration of the test. Treated plants and controls were maintained in a greenhouse for 13 to 15 days, after which time all species were compared to controls and visually evaluated. […] A dash (-) response means no test result.

[13] = test system: barnyardgrass; assay: Test C flooded paddy test; format: in vivo, Echinochloa crus-galli; conditions: Flood, scale 0 to 100 (0 no effect, 100 complete control), 13 to 15 days
Method in brief: as §3

[14] = test system: giant foxtail; assay: Test A postemergence; format: in vivo, Setaria faberii; conditions: 0 to 100 scale where 0 is no effect and 100 is complete control; for Foxtail, Giant plant response rating: 125 g ai/ha; for Plant response rating, Foxtail, Giant: 500 g ai/ha
Method in brief: as §2

[15] = test system: large (Lg) crabgrass; assay: Test A preemergence; format: in vivo, Digitaria sanguinalis; conditions: for Crabgrass, Large plant response rating (0 to 100 scale): 125 g ai/ha; for Crabgrass, Large plant response rating: 500 g ai/ha, 0 to 100 scale where 0 is no effect and 100 is complete control
Method in brief: as §2

[16] = test system: large (Lg) crabgrass; assay: Test A postemergence; format: in vivo, Digitaria sanguinalis; conditions: 0 to 100 scale where 0 is no effect and 100 is complete control; for Crabgrass, Large plant response rating: 125 g ai/ha; for Plant response rating, Crabgrass, Large: 500 g ai/ha
Method in brief: as §2

[17] = test system: barnyardgrass; assay: Test A postemergence; format: in vivo, Echinochloa crus-galli; conditions: 0 to 100 scale where 0 is no effect and 100 is complete control; for Barnyardgrass plant response rating: 125 g ai/ha; for Plant response rating, Barnyardgrass: 500 g ai/ha
Method in brief: as §2

[18] = test system: velvetleaf; assay: Test A postemergence; format: in vivo, Abutilon theophrasti; conditions: 0 to 100 scale where 0 is no effect and 100 is complete control; for Velvetleaf plant response rating: 125 g ai/ha; for Plant response rating, Velvetleaf: 500 g ai/ha
Method in brief: as §2

[19] = test system: morningglory; assay: Test A postemergence; format: in vivo, Ipomoea spp.; conditions: 0 to 100 scale where 0 is no effect and 100 is complete control; for Morningglory plant response rating: 125 g ai/ha; for Plant response rating, Morningglory: 500 g ai/ha
Method in brief: as §2

[20] = test system: morningglory; assay: Test A preemergence; format: in vivo, Ipomoea spp.; conditions: for Morningglory plant response rating (0 to 100 scale): 125 g ai/ha; for Morningglory plant response rating: 500 g ai/ha, 0 to 100 scale where 0 is no effect and 100 is complete control
Method in brief: as §2

[21] = test system: wheat; assay: Test A postemergence; format: in vivo, Triticum aestivum; conditions: 0 to 100 scale where 0 is no effect and 100 is complete control; for Wheat plant response rating: 125 g ai/ha; for Plant response rating, Wheat: 500 g ai/ha
Method in brief: as §2

[22] = test system: corn; assay: Test A preemergence; format: in vivo, Zea mays; conditions: for Corn plant response rating (0 to 100 scale): 125 g ai/ha; for Corn plant response rating: 500 g ai/ha, 0 to 100 scale where 0 is no effect and 100 is complete control
Method in brief: as §2

[23] = test system: corn; assay: Test A postemergence; format: in vivo, Zea mays; conditions: 0 to 100 scale where 0 is no effect and 100 is complete control; for Corn plant response rating: 125 g ai/ha; for Plant response rating, Corn: 500 g ai/ha
Method in brief: as §2

[24] = test system: pigweed; assay: Test A preemergence; format: in vivo, Amaranthus retroflexus; conditions: for Pigweed plant response rating (0 to 100 scale): 125 g ai/ha; for Pigweed plant response rating: 500 g ai/ha, 0 to 100 scale where 0 is no effect and 100 is complete control
Method in brief: as §2

## FC(F)c1cccc(Oc2ncc(Br)cn2)c1-n1cc(I)cn1 [Compound 185]
[1]
  Plant response rating, Ducksalad: 95
[2]
  Wheat plant response rating (0 to 100 scale): 0
  Wheat plant response rating: 10
[3]
  Foxtail, Giant plant response rating (0 to 100 scale): 90
  Foxtail, Giant plant response rating: 100
[4]
  Velvetleaf plant response rating (0 to 100 scale): 40
  Velvetleaf plant response rating: 80
[5]
  Barnyardgrass plant response rating (0 to 100 scale, 0 is no effect, 100 is complete control): 40
  Barnyardgrass plant response rating: 80
[6]
  Plant response rating, Rice: 0
[7]
  Plant response rating, Sedge, Umbrella: 90
[8]
  Plant response rating, Barnyardgrass: 0
[9]; 31 g ai/ha
  Plant response rating, Rice: 0
[9]; 62 g ai/ha
  Plant response rating, Rice: 0
[9]; 125 g ai/ha
  Plant response rating, Rice: 0
[9]; 250 g ai/ha
  Plant response rating, Rice: 15
[10]; 31 g ai/ha
  Plant response rating, Ducksalad: 0
[10]; 62 g ai/ha
  Plant response rating, Ducksalad: 0
[10]; 125 g ai/ha
  Plant response rating, Ducksalad: 0
[10]; 250 g ai/ha
  Plant response rating, Ducksalad: 40
[11]
  Pigweed plant response rating: 100
  Plant response rating, Pigweed: 100
[12]; 31 g ai/ha
  Plant response rating, Sedge, Umbrella: 0
[12]; 62 g ai/ha
  Plant response rating, Sedge, Umbrella: 50
[12]; 125 g ai/ha
  Plant response rating, Sedge, Umbrella: 50
[12]; 250 g ai/ha
  Plant response rating, Sedge, Umbrella: 85
[13]; 31 g ai/ha
  Plant response rating, Barnyardgrass: 0
[13]; 62 g ai/ha
  Plant response rating, Barnyardgrass: 0
[13]; 125 g ai/ha
  Plant response rating, Barnyardgrass: 0
[13]; 250 g ai/ha
  Plant response rating, Barnyardgrass: 0
[14]
  Foxtail, Giant plant response rating: 50
  Plant response rating, Foxtail, Giant: 80
[15]
  Crabgrass, Large plant response rating (0 to 100 scale): 90
  Crabgrass, Large plant response rating: 100
[16]
  Crabgrass, Large plant response rating: 60
  Plant response rating, Crabgrass, Large: 90
[17]
  Barnyardgrass plant response rating: 50
  Plant response rating, Barnyardgrass: 80
[18]
  Velvetleaf plant response rating: 90
  Plant response rating, Velvetleaf: 100
[19]
  Morningglory plant response rating: 70
  Plant response rating, Morningglory: 90
[20]
  Morningglory plant response rating (0 to 100 scale): 10
  Morningglory plant response rating: 30
[21]
  Wheat plant response rating: 0
  Plant response rating, Wheat: 40
[22]
  Corn plant response rating (0 to 100 scale): 0
  Corn plant response rating: 10
[23]
  Corn plant response rating: 10
  Plant response rating, Corn: 20
[24]
  Pigweed plant response rating (0 to 100 scale): 100
  Pigweed plant response rating: 100

## C#Cc1cnn(-c2ccccc2Oc2ncc(Cl)cn2)c1 [Compound 188]
[1]
  Plant response rating, Ducksalad: 90
[2]
  Wheat plant response rating (0 to 100 scale): 0
  Wheat plant response rating: 30
[3]
  Foxtail, Giant plant response rating (0 to 100 scale): 90
  Foxtail, Giant plant response rating: 100
[4]
  Velvetleaf plant response rating (0 to 100 scale): 70
  Velvetleaf plant response rating: 100
[5]
  Barnyardgrass plant response rating (0 to 100 scale, 0 is no effect, 100 is complete control): 30
  Barnyardgrass plant response rating: 100
[6]
  Plant response rating, Rice: 0
[7]
  Plant response rating, Sedge, Umbrella: 90
[8]
  Plant response rating, Barnyardgrass: 30
[9]; 31 g ai/ha
  Plant response rating, Rice: 0
[9]; 62 g ai/ha
  Plant response rating, Rice: 0
[9]; 125 g ai/ha
  Plant response rating, Rice: 0
[9]; 250 g ai/ha
  Plant response rating, Rice: 0
[10]; 31 g ai/ha
  Plant response rating, Ducksalad: 0
[10]; 62 g ai/ha
  Plant response rating, Ducksalad: 0
[10]; 125 g ai/ha
  Plant response rating, Ducksalad: 40
[10]; 250 g ai/ha
  Plant response rating, Ducksalad: 60
[11]
  Pigweed plant response rating: 100
  Plant response rating, Pigweed: 100
[12]; 31 g ai/ha
  Plant response rating, Sedge, Umbrella: 0
[12]; 62 g ai/ha
  Plant response rating, Sedge, Umbrella: 0
[12]; 125 g ai/ha
  Plant response rating, Sedge, Umbrella: 50
[12]; 250 g ai/ha
  Plant response rating, Sedge, Umbrella: 75
[13]; 31 g ai/ha
  Plant response rating, Barnyardgrass: 0
[13]; 62 g ai/ha
  Plant response rating, Barnyardgrass: 0
[13]; 125 g ai/ha
  Plant response rating, Barnyardgrass: 0
[13]; 250 g ai/ha
  Plant response rating, Barnyardgrass: 0
[14]
  Foxtail, Giant plant response rating: 60
  Plant response rating, Foxtail, Giant: 90
[15]
  Crabgrass, Large plant response rating (0 to 100 scale): 90
  Crabgrass, Large plant response rating: 100
[16]
  Crabgrass, Large plant response rating: 50
  Plant response rating, Crabgrass, Large: 80
[17]
  Barnyardgrass plant response rating: 30
  Plant response rating, Barnyardgrass: 90
[18]
  Velvetleaf plant response rating: 90
  Plant response rating, Velvetleaf: 100
[19]
  Morningglory plant response rating: 40
  Plant response rating, Morningglory: 100
[20]
  Morningglory plant response rating (0 to 100 scale): 10
  Morningglory plant response rating: 90
[21]
  Wheat plant response rating: 0
  Plant response rating, Wheat: 30
[22]
  Corn plant response rating (0 to 100 scale): 0
  Corn plant response rating: 20
[23]
  Corn plant response rating: 20
  Plant response rating, Corn: 50
[24]
  Pigweed plant response rating (0 to 100 scale): 100
  Pigweed plant response rating: 100
